Data: US11008323B2, “Substituted tricyclic 1,4-benzodiazepinone derivatives as allosteric modulators of group II metabotropic glutamate receptors” (Domain Therapeutics, priority 2015, dated 2021)

Assays:
human mGluR3 (hmGluR3) = molecular target: T1, human mGluR3 (hmGluR3) (Homo sapiens, UniProt Q14832); assay: Human mGluR3 positive allosteric modulator evaluation using Ca++ functional assay; format: cell-based; conditions: hmGluR3 transiently over-expressed in HEK-293 cells; stimulated by EC50 glutamate concentration; intracellular Ca2+ (Fluo4AM, FLIPR Tetra)
T1 construct: expressed in transfected cells; host or cells: HEK-293 cells, transient co-transfection by electroporation
How it was run: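 HEK-293 cells transiently co-expressing hmGluR3, a chimeric G protein and two glutamate transporters; Fluo4 calcium read on FLIPR. Compound alone for 10 min (agonist), then EC50 glutamate for 3 min (PAM); 20-point curves gave EC50, duplicate, two independent runs.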

T1 sequence (Q14832 23-879): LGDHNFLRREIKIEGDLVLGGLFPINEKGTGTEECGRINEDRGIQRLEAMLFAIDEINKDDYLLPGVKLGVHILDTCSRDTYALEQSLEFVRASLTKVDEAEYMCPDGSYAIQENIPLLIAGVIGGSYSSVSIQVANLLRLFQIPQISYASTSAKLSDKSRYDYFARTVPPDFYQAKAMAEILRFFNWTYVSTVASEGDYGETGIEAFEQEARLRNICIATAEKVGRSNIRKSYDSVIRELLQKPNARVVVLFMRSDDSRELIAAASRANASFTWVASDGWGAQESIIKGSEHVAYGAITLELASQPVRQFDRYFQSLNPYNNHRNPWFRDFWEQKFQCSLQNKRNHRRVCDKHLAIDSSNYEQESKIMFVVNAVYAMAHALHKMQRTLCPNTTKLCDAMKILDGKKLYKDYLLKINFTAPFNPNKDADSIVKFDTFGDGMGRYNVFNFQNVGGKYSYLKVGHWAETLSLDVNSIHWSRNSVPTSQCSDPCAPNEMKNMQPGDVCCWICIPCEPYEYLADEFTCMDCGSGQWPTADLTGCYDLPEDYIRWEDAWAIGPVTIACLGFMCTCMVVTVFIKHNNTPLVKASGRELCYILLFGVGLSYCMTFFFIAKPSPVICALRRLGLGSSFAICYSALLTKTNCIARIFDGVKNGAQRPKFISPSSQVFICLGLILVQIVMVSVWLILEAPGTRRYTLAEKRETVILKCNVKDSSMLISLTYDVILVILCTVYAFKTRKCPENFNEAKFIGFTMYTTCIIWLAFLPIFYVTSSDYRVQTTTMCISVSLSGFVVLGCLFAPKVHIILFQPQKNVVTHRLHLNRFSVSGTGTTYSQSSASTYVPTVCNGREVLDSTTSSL

| SMILES | melting point [°C] | EC50 (human mGluR3 (hmGluR3)) [nM] |
| --- | --- | --- |
| CN1C(=O)c2cc(-c3ccccc3)cn2-c2ccc(N3CCOCC3)cc2C12CC2 [Example 120, 8-Morpholin-4-yl-5-methyl-2-phenyl-spiro[benzo[f]pyrrolo[1,2-a][1,4]diazepine-6,1′-cyclopropan]-4(5H)-one] | 117 to 123 | > 1000 |
| CN1C(=O)c2cc(-c3ccccc3)nn2-c2cc(-c3cc[nH]n3)ccc2C12CC2 [Example 136, 9-(1H-pyrazol-3-yl)-5-methyl-2-phenyl-spiro[benzo[f]pyrazolo[1,5-a][1,4]diazepine-6,1′-cyclopropan]-4(5H)-one] | 218 to 224 | 100 to 1000 |
| Cc1ncsc1-c1ccc2c(c1)-n1cccc1C(=O)N(C)C21CC1 [Example 50, 5-Methyl-9-(4-methylthiazol-5-yl)-spiro[benzo[f]pyrrolo[1,2-a][1,4]diazepine-6,1′-cyclopropan]-4(5H)-one] | 205 to 212 | 100 to 1000 |
| Cc1cccc2c1C1(CC1)N(C)C(=O)c1cccn1-2 [Example 89, 5,7-Dimethyl-spiro[benzo[f]pyrrolo[1,2-a][1,4]diazepine-6,1′-cyclopropan]-4(5H)-one] | 126 to 134 | > 1000 |
| CC(=O)N1CC=C(c2ccc3c(c2)-n2cccc2C(=O)N(C)C32CC2)CC1 [Example 48, 5-Methyl-9-(1-acetyl-1,2,3,6-tetrahydro-pyridin-4-yl)-spiro[benzo[f]pyrrolo[1,2-a][1,4]diazepine-6,1′-cyclopropan]-4(5H)-one] | 101 to 110 | 100 to 1000 |
| CN1C(=O)c2cccn2-c2cc(-c3ccc(F)nc3)ccc2C12CC2 [Example 31, 5-Methyl-9-(6-fluoropyridin-3-yl)-spiro[benzo[f]pyrrolo[1,2-a][1,4]diazepine-6,1′-cyclopropan]-4(5H)-one] | 171 to 176 | < 100 |
| CN1C(=O)c2cc(-c3ccccc3)nn2-c2cc(-c3cnco3)ccc2C12CC2 [Example 132, 9-(Oxazol-5-yl)-5-methyl-2-phenyl-spiro[benzo[f]pyrazolo[1,5-a][1,4]diazepine-6,1′-cyclopropan]-4(5H)-one] | 214 to 220 | 100 to 1000 |
| CN1C(=O)c2cc(-c3ccccc3)nn2-c2cc(N3CCCC3)ccc2C12CC2 [Example 139, 5-Methyl-2-phenyl-9-(pyrrolidin-1-yl)-spiro[benzo[f]pyrazolo[1,5-a][1,4]diazepine-6,1′-cyclopropan]-4(5H)-one] | 226 to 230 | > 1000 |
| CN1C(=O)c2cc(-c3nnco3)cn2-c2cc(-c3ccc(F)nc3)ccc2C12CC2 [Example 187] | 160 to 175 | < 100 |
| Cc1cccc2c1-n1cccc1C(=O)N(C)C21CC1 [Example 90, 5,10-Dimethyl-spiro[benzo[f]pyrrolo[1,2-a][1,4]diazepine-6,1′-cyclopropan]-4(5H)-one] | 200 to 207 | > 1000 |
| Cc1n[nH]c(C)c1-c1ccc2c(c1)-n1cccc1C(=O)N(C)C21CC1 [Example 27, 5-Methyl-9-(3,5-dimethyl-1H-pyrazol-4-yl)-spiro[benzo[f]pyrrolo[1,2-a][1,4]diazepine-6,1′-cyclopropan]-4(5H)-one] | 115 to 125 | > 1000 |
| CN1C(=O)c2cc(-c3ccccc3)nn2-c2cc(-c3cccc(C#N)c3)ccc2C12CC2 [Example 129, 9-(3-Cyano-phenyl)-5-methyl-2-phenyl-spiro[benzo[f]pyrazolo[1,5-a][1,4]diazepine-6,1′-cyclopropan]-4(5H)-one] | 185 to 190 | 100 to 1000 |
| COc1ccc(-c2ccc3c(c2)-n2nc(-c4ccccc4)cc2C(=O)N(C)C32CC2)cc1 [Example 128, 9-(4-Methoxy-phenyl)-5-methyl-2-phenyl-spiro[benzo[f]pyrazolo[1,5-a][1,4]diazepine-6,1′-cyclopropan]-4(5H)-one] | > 250 | 100 to 1000 |
| CN1C(=O)c2cccn2-c2cc(-c3cnccc3C(F)(F)F)ccc2C12CC2 [Example 37, 5-Methyl-9-(4-trifluoromethylpyridin-3-yl)-spiro[benzo[f]pyrrolo[1,2-a][1,4]diazepine-6,1′-cyclopropan]-4(5H)-one] | 67 to 78 | > 1000 |
| CN1C(=O)c2cccn2-c2c(C#N)cccc2C12CC2 [Example 91, 10-Cyano-5-methyl-spiro[benzo[f]pyrrolo[1,2-a][1,4]diazepine-6,1′-cyclopropan]-4(5H)-one] | 250 | > 1000 |
| COc1ncccc1-c1ccc2c(c1)-n1cc(-c3ccccc3)cc1C(=O)N(C)C21CC1 [Example 116, 5-Methyl-2-phenyl-9-(2-methoxy-pyridin-3-yl)-spiro[benzo[f]pyrrolo[1,2-a][1,4]diazepine-6,1′-cyclopropan]-4(5H)-one] | 183 to 186 | 100 to 1000 |
| CN1C(=O)c2cccn2-c2cc(-c3ncccc3F)ccc2C12CC2 [Example 66, 5-Methyl-9-(3-fluoropyridin-2-yl)-spiro[benzo[f]pyrrolo[1,2-a][1,4]diazepine-6,1′-cyclopropan]-4(5H)-one] | 102 to 118 | > 1000 |

| SMILES | melting point [°C] | EC50 (human mGluR3 (hmGluR3)) [nM] |
| --- | --- | --- |
| COc1ccc(-c2ccc3c(c2)-n2cccc2C(=O)N(C)C32CC2)cc1OC [Example 39, 5-Methyl-9-(3,4-dimethoxy-phenyl)-spiro[benzo[f]pyrrolo[1,2-a][1,4]diazepine-6,1′-cyclopropan]-4(5H)-one] | 150 to 154 | 100 to 1000 |
| CN1C(=O)c2cccn2-c2ccccc2C1(C)C [Example 221, 5,6,6-Trimethyl-5,6-dihydro-benzo[f]pyrrolo[1,2-a][1,4]diazepin-4-one] | 127 to 130 | > 1000 |
| CN1C(=O)c2cc(-c3ccccc3)cn2-c2cc(-c3ccc(F)nc3)ccc2C12CC2 [Example 106, 5-Methyl-2-phenyl-9-(6-fluoro-pyridin-3-yl)-spiro[benzo[f]pyrrolo[1,2-a][1,4]diazepine-6,1′-cyclopropan]-4(5H)-one] | 177 to 184 | < 100 |
| CN(C)c1ccc(-c2ccc3c(c2)-n2cc(-c4nnco4)cc2C(=O)N(C)C32CC2)cn1 [Example 190] | > 250 | < 100 |
| CN1C(=O)c2cc(-c3ncc[nH]3)cn2-c2cc(-c3ccc(F)nc3)ccc2C12CC2 [Example 186] | > 250 | < 100 |
| CN1C(=O)c2cccn2-c2c(ccc(-c3ccc(F)nc3)c2F)C12CC2 [Example 76, 10-Fluoro-5-Methyl-9-(6-fluoro-pyridin-3-yl)-spiro[benzo[f]pyrrolo[1,2-a][1,4]diazepine-6,1′-cyclopropan]-4(5H)-one] | 153 to 157 | < 100 |
| Cc1nc(F)ccc1-c1ccc2c(c1)-n1cccc1C(=O)N(C)C21CC1 [Example 32, 5-Methyl-9-(6-fluoro-2-methylpyridin-3-yl)-spiro[benzo[f]pyrrolo[1,2-a][1,4]diazepine-6,1′-cyclopropan]-4(5H)-one] | 198 to 202 | < 100 |
| CN1C(=O)c2cccn2-c2cc(C=CC#N)ccc2C12CC2 (mixture of isomers) [Example 52, 5-Methyl-9-actylonitrile-spiro[benzo[f]pyrrolo[1,2-a][1,4]diazepine-6,1′-cyclopropan]-4(5H)-one] | 130 to 138 | 100 to 1000 |
| Cc1ncoc1-c1ccc2c(c1)-n1cccc1C(=O)N(C)C21CC1 [Example 49, 5-Methyl-9-(4-methyl-oxazol-5-yl)-spiro[benzo[f]pyrrolo[1,2-a][1,4]diazepine-6,1′-cyclopropan]-4(5H)-one] | 120 to 128 | > 1000 |
| CN1C(=O)c2cccn2-c2cc(CC#N)ccc2C12CC2 [Example 51, 5-Methyl-9-acetonitrile-spiro[benzo[f]pyrrolo[1,2-a][1,4]diazepine-6,1′-cyclopropan]-4(5H)-one] | 60 to 69 | > 1000 |
| CN1C(=O)c2cccn2-c2cc(-c3ccnc(C(F)(F)F)c3)ccc2C12CC2 [Example 35, 5-Methyl-9-(2-trifluoromethylpyridin-4-yl)-spiro[benzo[f]pyrrolo[1,2-a][1,4]diazepine-6,1′-cyclopropan]-4(5H)-one] | 169 to 174 | 100 to 1000 |
| CN1C(=O)c2cc(-c3ccccc3)cn2-c2cc(-c3cnccn3)ccc2C12CC2 [Example 108, 5-Methyl-2-phenyl-9-pyrazin-2-yl-spiro[benzo[f]pyrrolo[1,2-a][1,4]diazepine-6,1′-cyclopropan]-4(5H)-one] | 130 to 141 | 100 to 1000 |
| Cc1ncccc1-c1ccc2c(c1)-n1cc(C#N)cc1C(=O)N(C)C21CC1 [Example 153] | > 250 | 100 to 1000 |
| CN1C(=O)c2cccn2-c2cc(-c3ccc(F)nc3)c(F)cc2C12CC2 [Example 78, 8-Fluoro-5-methyl-9-(6-fluoro-pyridin-3-yl)-spiro[benzo[f]pyrrolo[1,2-a][1,4]diazepine-6,1′-cyclopropan]-4(5H)-one] | 185 to 192 | 100 to 1000 |
| CN1C(=O)c2cccn2-c2ccc(N3CCOCC3)cc2C12CC2 [Example 88, 8-Morpholin-4-yl-5-methyl-spiro[benzo[f]pyrrolo[1,2-a][1,4]diazepine-6,1′-cyclopropan]-4(5H)-one] | 140 to 146 | > 1000 |
| CN1C(=O)c2cc(-c3ccccc3)nn2-c2cc(C#N)ccc2C12CC2 [Example 137, 9-Cyano-5-methyl-2-phenyl-spiro[benzo[f]pyrazolo[1,5-a][1,4]diazepine-6,1′-cyclopropan]-4(5H)-one] | 196 to 200 | > 1000 |
